The subject of the test is BDF1 mice, Adenocarcinoma 755 s.c., tumor weight T/C. Put plainly: NCI In Vivo Anticancer Drug Screen. Data for tumor model Adenocarcinoma 755 (subcutaneous) in B6D2F1 (BDF1) mice. The following applies: endpoint: mean tumor weight, higher = larger tumour. The procedure, abridged: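 Compound activity was tested in mice carrying transplanted tumors. Survival or tumor size was measured, and each value is the treated-group measurement divided by that of the vehicle-treated control group (T/C).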

[1] abbreviates: dose: 50.0 mg/kg/injection, schedule: Q01DX011 (ip), vehicle: carboxymethylcellulose (CMC).
Where [2] appears, read: dose: 100.0 mg/kg/injection, schedule: Q01DX011 (ip), vehicle: carboxymethylcellulose (CMC).
[3] abbreviates: dose: 200.0 mg/kg/injection, schedule: Q01DX011 (ip), vehicle: carboxymethylcellulose (CMC).
Setting [4] is: dose: 400.0 mg/kg/injection, schedule: Q01DX011 (ip), vehicle: carboxymethylcellulose (CMC).
Where [5] appears, read: dose: 75.0 mg/kg/injection, schedule: Q01DX011 (ip), vehicle: saline.
Where [6] appears, read: dose: 30.0 mg/kg/injection, schedule: Q01DX011 (ip), vehicle: carboxymethylcellulose (CMC).
Where [7] appears, read: dose: 60.0 mg/kg/injection, schedule: Q01DX011 (ip), vehicle: carboxymethylcellulose (CMC).
[8] abbreviates: dose: 120.0 mg/kg/injection, schedule: Q01DX011 (ip), vehicle: carboxymethylcellulose (CMC).
Setting [9] is: dose: 240.0 mg/kg/injection, schedule: Q01DX011 (ip), vehicle: carboxymethylcellulose (CMC).
Setting [10] is: dose: 25.0 mg/kg/injection, schedule: Q01DX011 (ip), vehicle: saline.

Several values for one entry are separate records, joined by “and”; a condition that tells them apart may be missing. Equal entries are not always repeated.

Take `Cc1nc(C(N)=O)nc2ccccc12`: the T/C was 102 % of control (dose: 31.25 mg/kg/injection, schedule: Q01DX011 (ip), vehicle: methylcellulose (MC)); 99 % of control under setting [1]; 80 % of control under setting [2]; 58 % of control under setting [3]; 32 % of control under setting [4].

For `CN(C)[C@@H]1C(=O)C(C(=O)NCNC2(C(=O)O)CCCC2)=C(O)[C@@]2(O)C(=O)C3=C(O)c4c(O)cccc4[C@@](C)(O)[C@H]3C[C@@H]12`, the T/C reads like this: (dose: 50.0 mg/kg/injection, schedule: Q01DX011 (ip), vehicle: saline) 77 % of control; under setting [5], 65 % of control; (dose: 125.0 mg/kg/injection, schedule: Q01DX011 (ip), vehicle: saline) 41 % of control; (dose: 250.0 mg/kg/injection, schedule: Q01DX011 (ip), vehicle: saline) 1 % of control.

Regarding `CC(=O)OCC1OC(n2c(Br)nc3c(N)ncnc32)C(OC(C)=O)C1OC(C)=O` (stereo unspecified), the T/C by setting is: under setting [6], 88 % of control; under setting [7], 88 % of control; under setting [8], 104 % of control; under setting [9], 113 % of control.

Consider `O=C(CCl)Nc1ncnc2nc[nH]c12`, for which the T/C (dose: 20.0 mg/kg/injection, schedule: Q01DX011 (ip), vehicle: methylcellulose (MC)) is 84 % of control.

In the case of `CCOC=Nc1c(N)ncnc1Cl`, the T/C under setting [6] is 67 % of control; the T/C under setting [1] was 107 % of control; the T/C under setting [7] was 34 % of control; the T/C (dose: 62.5 mg/kg/injection, schedule: Q01DX011 (ip), vehicle: olive oil, sesame oil, peanut oil) was 62 % of control; the T/C under setting [2] is 60 % of control; the T/C under setting [8] was 10 % of control. The T/C runs as follows: (dose: 125.0 mg/kg/injection, schedule: Q01DX011 (ip), vehicle: olive oil, sesame oil, peanut oil) 65 % of control; under setting [3], 38 % of control; under setting [9], 2 % of control; (dose: 250.0 mg/kg/injection, schedule: Q01DX011 (ip), vehicle: olive oil, sesame oil, peanut oil) 43 % of control; under setting [4], 11 % of control; (dose: 500.0 mg/kg/injection, schedule: Q01DX011 (ip), vehicle: olive oil, sesame oil, peanut oil) 23 % of control.

Consider `COC1CC(O)C(COS(C)(=O)=O)O1` (stereo unspecified), for which the T/C is, setting by setting: under setting [10], 100 % of control; under setting [5], 114 % of control; (dose: 225.0 mg/kg/injection, schedule: Q01DX011 (ip), vehicle: saline) 113 % of control.

Take `CS(=O)(=O)OCC1OC(O)CC1O` (stereo unspecified): the T/C was 113 % of control under setting [10] and 153 % of control under setting [5].

On to `CNS(=O)(=O)c1ncnc2nc[nH]c12`, for which the T/C is, setting by setting: (dose: 3.1 mg/kg/injection, schedule: Q01DX011 (ip), vehicle: methylcellulose (MC)) 77 % of control; (dose: 6.2 mg/kg/injection, schedule: Q01DX011 (ip), vehicle: methylcellulose (MC)) 36 % of control; (dose: 8.0 mg/kg/injection, schedule: Q01DX011 (ip), vehicle: carboxymethylcellulose (CMC)) 51 % of control; (dose: 10.0 mg/kg/injection, schedule: Q01DX011 (ip), vehicle: carboxymethylcellulose (CMC)) 20 % of control; (dose: 12.5 mg/kg/injection, schedule: Q01DX011 (ip), vehicle: methylcellulose (MC)) 44 % of control; (dose: 15.0 mg/kg/injection, schedule: Q01DX011 (ip), vehicle: carboxymethylcellulose (CMC)) 28 % of control. For the same compound, the T/C was 2 % of control (dose: 20.0 mg/kg/injection, schedule: Q01DX011 (ip), vehicle: carboxymethylcellulose (CMC)); 5 % of control (dose: 25.0 mg/kg/injection, schedule: Q01DX011 (ip), vehicle: methylcellulose (MC)); 16 % of control under setting [6]; 2 % of control (dose: 40.0 mg/kg/injection, schedule: Q01DX011 (ip), vehicle: carboxymethylcellulose (CMC)).

In the case of `O=C1Nc2ccccc2SC1c1ccccc1Cl` (stereo unspecified), the T/C is 94 % of control and 78 % of control (dose: 75.0 mg/kg/injection, schedule: Q01DX011 (ip), vehicle: methylcellulose (MC)); 54 % of control and 60 % of control (dose: 150.0 mg/kg/injection, schedule: Q01DX011 (ip), vehicle: methylcellulose (MC)).

With `Nc1nc(SN=Nc2ccc(S(=O)(=O)O)cc2)c2[nH]cnc2n1`, the T/C was 70 % of control (dose: 0.13 mg/kg/injection, schedule: Q01DX011 (sc), vehicle: alkali diluted with saline); 48 % of control (dose: 0.25 mg/kg/injection, schedule: Q01DX011 (sc), vehicle: alkali diluted with saline); 50 % of control (dose: 0.5 mg/kg/injection, schedule: Q01DX011 (ip), vehicle: alkali diluted with saline); 46 % of control (dose: 0.5 mg/kg/injection, schedule: Q01DX011 (ip), vehicle: other); 32 % of control (dose: 0.5 mg/kg/injection, schedule: Q01DX011 (sc), vehicle: alkali diluted with saline); 12 % of control (dose: 1.0 mg/kg/injection, schedule: Q01DX011 (ip), vehicle: alkali diluted with saline). For the same compound, the T/C runs as follows: (dose: 1.0 mg/kg/injection, schedule: Q01DX011 (ip), vehicle: other) 3 % of control; (dose: 2.0 mg/kg/injection, schedule: Q01DX011 (ip), vehicle: alkali diluted with saline) 1 % of control; (dose: 8.0 mg/kg/injection, schedule: Q01DX011 (ip), vehicle: alkali diluted with saline) 1 % of control.

With `O=C=NC(c1ccccc1)(c1ccccc1)c1ccccc1`, the T/C is 102 % of control (dose: 7.0 mg/kg/injection, schedule: Q01DX011 (ip), vehicle: carboxymethylcellulose (CMC)); 103 % of control (dose: 14.0 mg/kg/injection, schedule: Q01DX011 (ip), vehicle: carboxymethylcellulose (CMC)); 86 % of control and 87 % of control (dose: 28.0 mg/kg/injection, schedule: Q01DX011 (ip), vehicle: carboxymethylcellulose (CMC)); 71 % of control (dose: 112.0 mg/kg/injection, schedule: Q01DX011 (ip), vehicle: carboxymethylcellulose (CMC)).

Values taken from PubChem BioAssay AID180 (DTP/NCI, 2004).
